Molecular target: T1, human RORγ-LBD (Homo sapiens, UniProt P51449)
T1 construct: made in house; host or cells: E. coli (BL-21)
T1 sequence (P51449 262-518): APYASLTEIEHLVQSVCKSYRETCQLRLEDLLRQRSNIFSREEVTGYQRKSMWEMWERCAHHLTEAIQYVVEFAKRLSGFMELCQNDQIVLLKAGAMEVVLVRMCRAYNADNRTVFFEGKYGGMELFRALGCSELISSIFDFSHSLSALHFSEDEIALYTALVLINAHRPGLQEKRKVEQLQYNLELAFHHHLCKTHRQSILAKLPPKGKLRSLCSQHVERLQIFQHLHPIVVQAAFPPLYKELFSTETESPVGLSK
Experiment: ROR gamma coactivator peptide recruitment Alphascreen assay (RORγ-LBD binding to GRIP1 coactivator peptide)
Type: biochemical
Settings: 5 nM human RORγ-LBD, 30 nM 7-β-hydroxycholesterol, 50 nM biotinylated GRIP1 coactivator peptide, overnight incubation at room temperature; read-out: result (pIC50, RORγ coactivator peptide recruitment Alphascreen assay) (converted)
Method in brief: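 Alphascreen proximity read-out after overnight room-temperature incubation, yielding pIC50 from 1-in-2 compound series (2.5% DMSO final). Mixture: 50 nM biotin-GRIP1 peptide, 30 nM 7-β-hydroxycholesterol agonist, 5 nM recombinant 6×His:Flag human RORγ-LBD (aa 262-518), 50 mM HEPES pH 7.4.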

Compound	IC50
CC(C)[C@@H]1C[C@H](Cc2c(Cl)cncc2Cl)N(C(=O)c2cnn([C@H]3CC[C@](C)(C(=O)O)CC3)c2C(F)(F)F)C1 (single isomer, unassigned) [Example 701]	9.33 nM
CC1(C)CC(CN(CC(=O)c2c(Cl)cccc2Cl)C(=O)c2cnn([C@H]3CC[C@H](C(=O)O)CC3)c2C(F)(F)F)C1 [Example 521, trans-4-(4-((2-(2,6-dichlorophenyl)-2-oxoethyl)((3,3-dimethylcyclobutyl)methyl)carbamoyl) 5-(trifluoromethyl)-1H-pyrazol-1-yl)cyclohexanecarboxylic acid]	1.86 nM
C[C@@H]1C[C@H](n2ncc(C(=O)N(CC(=O)c3c(Cl)cncc3Cl)C[C@]34CC[C@H](CC3)O4)c2C(F)(F)F)CC[C@H]1C(=O)O [Example 880, (1R,2R,4R)-4-(4-((2-(3,5-dichloro-4-pyridinyl)-2-oxoethyl)((1s,4s)-7-oxabicyclo[2.2.1]hept-1-ylmethyl)carbamoyl)-5-(trifluoromethyl)-1H-pyrazol-1-yl)-2-methylcyclohexanecarboxylic acid]	16.2 nM
Cc1ccccc1CCN(Cc1ccc(Cl)cc1)C(=O)c1cnn([C@H]2CC[C@H](C(=O)O)CC2)c1C(F)(F)F [Example 509, trans-4-(4-((4-chlorobenzyl)(2-(2-methylphenyl)ethyl)carbamoyl)-5-(trifluoromethyl)-1H-pyrazol-1-yl)cyclohexanecarboxylic acid]	11.5 nM
CC1(C)CC[C@H]1N(CC(=O)c1c(Cl)cccc1Cl)C(=O)c1cnn([C@H]2CC[C@@H](C(=O)O)CC2)c1C(F)(F)F [Example 636, cis-4-(4-((2-(2,6-dichlorophenyl)-2-oxoethyl)((1R)-2,2-dimethylcyclobutyl)carbamoyl)-5-(trifluoromethyl)-1H-pyrazol-1-yl)cyclohexanecarboxylic acid]	132 nM
C[C@]1(C(=O)O)CC[C@H](n2ncc(C(=O)N3CC4(CC=CC4)C[C@@H]3Cc3c(Cl)cncc3Cl)c2C(F)(F)F)CC1 [Example 576, trans-4-(4-(((3R)-3-((3,5-dichloro-4-pyridinyl)methyl)-2-azaspiro[4.4]non-7-en-2-yl)carbonyl)-5-(trifluoromethyl)-1H-pyrazol-1-yl)-1-methylcyclohexanecarboxylic acid]	34.7 nM
CC(C)(C)CN(CC(=O)c1c(Cl)cncc1Cl)C(=O)c1cnn([C@H]2CC[C@]3(CC2)C[C@@H]3C(=O)O)c1C(F)(F)F [Example 860, (1R,3r,6R)-6-(4-((2-(3,5-dichloro-4-pyridinyl)-2-oxoethyl)(2,2-dimethylpropyl)carbamoyl)-5-(trifluoromethyl)-1H-pyrazol-1-yl)spiro[2.5]octane-1-carboxylic acid]	11.5 nM
COc1ncc(Cl)c(C(=O)CN(CC(C)(C)C)C(=O)c2cnn([C@H]3CC[C@](C)(C(=O)O)CC3)c2C(F)(F)F)c1Cl [Example 753, trans-4-(4-((2-(3,5-dichloro-2-methoxy-4-pyridinyl)-2-oxoethyl)(2,2-dimethylpropyl)carbamoyl)-5-(trifluoromethyl)-1H-pyrazol-1-yl)-1-methylcyclohexanecarboxylic acid]	25.1 nM
CC1(C)CC[C@H]1N(CC(=O)c1c(Cl)cncc1Cl)C(=O)c1cnn([C@H]2CC[C@@H](C(=O)O)CC2)c1C(F)(F)F [Example 634, cis-4-(4-((2-(3,5-dichloro-4-pyridinyl)-2-oxoethyl)((1R)-2,2-dimethylcyclobutyl)carbamoyl)-5-(trifluoromethyl)-1H-pyrazol-1-yl)cyclohexanecarboxylic acid]	871 nM
CC1(C)[C@@H]2C[C@H](N(CC(=O)c3c(Cl)ccc(F)c3Cl)C(=O)c3cnn([C@H]4CC[C@](C)(C(=O)O)CC4)c3C(F)(F)F)C[C@@H]21 [Example 763, trans-4-(4-((2-(2,6-dichloro-3-fluorophenyl)-2-oxoethyl)((1R,3r,5S)-6,6-dimethylbicyclo[3.1.0]hex-3-yl)carbamoyl)-5-(trifluoromethyl)-1H-pyrazol-1-yl)-1-methylcyclohexanecarboxylic acid]	1.62 nM
CC1(C)CC(CN(CC(=O)c2ccccc2Br)C(=O)c2cnn([C@H]3CC[C@](C)(C(=O)O)CC3)c2C(F)(F)F)C1 [Example 589, trans-4-(4-((2-(2-bromophenyl)-2-oxoethyl)((3,3-dimethylcyclobutyl)methyl)carbamoyl)-5-(trifluoromethyl)-1H-pyrazol-1-yl)-1-methylcyclohexanecarboxylic acid]	42.7 nM
C[C@]1(C(=O)O)CC[C@H](n2ncc(C(=O)N(CC(=O)c3c(Cl)cncc3Cl)[C@H]3C[C@@H]4CC[C@H]3C4)c2C(F)(F)F)CC1 [Example 677, trans-4-(4-((1S,2R,4R)-bicyclo[2.2.1]hept-2-yl(2-(3,5-dichloro-4-pyridinyl)-2-oxoethyl)carbamoyl)-5-(trifluoromethyl)-1H-pyrazol-1-yl)-1-methylcyclohexanecarboxylic acid]	5.62 nM
CC(C)(C)CN(CC(=O)c1c(Cl)cnc(Cl)c1Cl)C(=O)c1cnn([C@H]2CC[C@](C)(C(=O)O)CC2)c1C(F)(F)F [Example 697, trans-4-(4-((2,2-dimethylpropyl)(2-oxo-2-(2,3,5-trichloro-4-pyridinyl)ethyl)carbamoyl)-5-(trifluoromethyl)-1H-pyrazol-1-yl)-1-methylcyclohexanecarboxylic acid]	12.9 nM
CC(C)(C)CN(CC(=O)c1c(Cl)cncc1Cl)C(=O)c1cnn([C@H]2C[C@]3(C[C@H](C(=O)O)C3)C2)c1C(F)(F)F (stereo partly shown) [Example 836, (4R/S)-6-(4-((2-(3,5-dichloro-4-pyridinyl)-2-oxoethyl)(2,2-dimethylpropyl)carbamoyl)-5-(trifluoromethyl)-1H-pyrazol-1-yl)spiro[3.3]heptane-2-carboxylic acid]	30.9 nM

Further lines, results first:

IC50	Compound
2.24 nM	CC(C)(CN(CC(=O)c1c(Cl)cccc1Cl)C(=O)c1cnn([C@H]2CC[C@](C)(C(=O)O)CC2)c1C(F)(F)F)C(F)(F)F [Example 893, trans-4-(4-((2-(2,6-dichlorophenyl)-2-oxoethyl)(3,3,3-trifluoro-2,2-dimethylpropyl)carbamoyl)-5-(trifluoromethyl)-1H-pyrazol-1-yl)-1-methylcyclohexanecarboxylic acid]
1.26 nM	Cc1cc(Cl)c(C(=O)CN(CC2(C)CCCCC2)C(=O)c2cnn([C@H]3CC[C@](C)(C(=O)O)CC3)c2C(F)(F)F)c(Cl)c1 [Example 571, trans-4-(4-((2-(2,6-dichloro-4-methylphenyl)-2-oxoethyl)((1-methylcyclohexyl)methyl)carbamoyl)-5-(trifluoromethyl)-1H-pyrazol-1-yl)-1-methylcyclohexanecarboxylic acid]
21.9 nM	C[C@]1(C(=O)O)CC[C@H](n2ncc(C(=O)N(CCC3CC3)CC(=O)c3c(Cl)cncc3Cl)c2C(F)(F)F)CC1 [Example 776, trans-4-(4-((2-cyclopropylethyl)(2-(3,5-dichloro-4-pyridinyl)-2-oxoethyl)carbamoyl)-5-(trifluoromethyl)-1H-pyrazol-1-yl)-1-methylcyclohexanecarboxylic acid]
10.5 nM	Cc1ncc(Cl)c(C(=O)CN(CC(C)(C)C)C(=O)c2cnn([C@H]3CC[C@](C)(C(=O)O)CC3)c2C(F)(F)F)c1Cl [Example 715, trans-4-(4-((2-(3,5-dichloro-2-methyl-4-pyridinyl)-2-oxoethyl)(2,2-dimethylpropyl)carbamoyl)-5-(trifluoromethyl)-1H-pyrazol-1-yl)-1-methylcyclohexanecarboxylic acid]
14.8 nM	Cc1cc(Cl)c(C(=O)CN(CC(C)(C)C)C(=O)c2cnn([C@H]3CC[C@](C)(C(=O)O)CC3)c2C(F)(F)F)c(Cl)n1 [Example 687, trans-4-(4-((2-(2,4-dichloro-6-methyl-3-pyridinyl)-2-oxoethyl)(2,2-dimethylpropyl)carbamoyl)-5-(trifluoromethyl)-1H-pyrazol-1-yl)-1-methylcyclohexanecarboxylic acid]
4.47 nM	Cc1cc(F)c(C(=O)CN(CC2(C)CCC2)C(=O)c2cnn([C@H]3CC[C@](C)(C(=O)O)CC3)c2C(F)(F)F)c(Cl)c1 [Example 778, trans-4-(4-((2-(2-chloro-6-fluoro-4-methylphenyl)-2-oxoethyl)((1-methylcyclobutyl)methyl)carbamoyl)-5-(trifluoromethyl)-1H-pyrazol-1-yl)-1-methylcyclohexanecarboxylic acid]
0.871 nM	CC1(CN(CC(=O)c2c(Cl)cc(F)cc2Cl)C(=O)c2cnn([C@H]3CC[C@](C)(C(=O)O)CC3)c2C(F)(F)F)CCCC1 [Example 671, trans-4-(4-((2-(2,6-dichloro-4-fluorophenyl)-2-oxoethyl)((1-methylcyclopentyl)methyl)carbamoyl)-5-(trifluoromethyl)-1H-pyrazol-1-yl)-1-methylcyclohexanecarboxylic acid]
7.94 nM	C[C@]1(C(=O)O)CC[C@H](n2ncc(C(=O)N(CC(=O)c3c(Cl)cccc3Cl)[C@@H]3CCC34CCCC4)c2C(F)(F)F)CC1 [Example 650, trans-4-(4-((2-(2,6-dichlorophenyl)-2-oxoethyl)((1R)-spiro[3.4]oct-1-yl)carbamoyl)-5-(trifluoromethyl)-1H-pyrazol-1-yl)-1-methylcyclohexanecarboxylic acid]

From patent publication US9365522B2, “Pyrazole amide derivative” (AMGEN INC., priority 2015, dated 2016)
